Data: patent US11299762B2, “Nanoscale motion detector” (Ecole Polytechnique Fédérale de Lausanne (EPFL), priority 2011, dated 2022)
One block for each molecule: values may come before it.

Tests used:
human Topoisomerase II = experiment: TopoII adsorbed on AFM cantilever, fluctuation recording (drug affinity detection); format: biochemical
Description: This enzyme requires ATP to modify its 3D conformation and to act on DNA. TopoII is also the preferred target of numerous anticancerous drugs such as aclarubicin. This drug binds to TopoII, freezes its conformation and inhibits its action (15). In the first experiment, TopoII was adsorbed onto both sides of a cantilever. It was than introduced in the analysis chamber of an AFM and its laser beam was collimated on the apex of the cantilever. The reflection of the laser beam, sent to a split photo-detector, allowed detecting the fluctuations of the cantilever as depicted in FIG. 1 and, more in detail, FIG. 3,
The experiment consisted in injecting successively an ATP depleted buffer, an ATP enriched solution and an aclarubicin+ATP rich media in the analysis chamber and by recording the resulting fluctuations of the cantilever.
This experiment was performed using an APTES-coated AFM cantilever. The different buffers injected during experiment are: buffer (50 mM Tris-HCl (pH 8.0), 150 mM NaCl, 10 mM MgCl2, and 0.5 mM dithiothreitol), 0.02 mM ATP and 0.02 mM ATP plus 100 μM aclarubicin.
The media used in this experiment are: buffer (50 mM Tris-HCl (pH 8.0), 150 mM NaCl, 10 mM MgCl2 and 0.5 mM dithiothreitol.), 0.02 mM ATP, 0.2 mM ATP, 2 mM ATP and again buffer.

[1] = system: TopoII-supercoiled DNA complexes; experiment: TopoII-supercoiled DNA complexes on AFM cantilever, fluctuation recording; format: biochemical, human; conditions: 0.02 mM ATP, compared to ATP free buffer or AMPPMP solution
Method: As mentioned previously, TopoII interacts with DNA to simplify its topology. To record this reaction with our method we deposited TopoII-supercoiled DNA complexes on both sides of an AFM cantilever, as depicted in FIG. 6.
The experiment was performed using an APTES-coated AFM cantilever. The different media injected during experiment are: buffer (50 mM Tris-HCl (pH 8.0), 150 mM NaCl, 10 mM MgCl2 and 0.5 mM dithiothreitol), 0.02 mM. AMPPNP (an ATP analogue) and 0.02 mM ATP. […] Panel B depicts the experimental set-up to follow TopoII-DNA interactions. a) DNA molecule, b) TopoII, c) AFM cantilever, d) laser beam. Panel C evidences the differences in terms of the variance.
Here again the cantilever covered with TopoII-supercoiled DNA complexes was inserted in the analysis chamber and exposed to several consecutive liquid environments: 1) ATP free solution, 2) buffer containing a non functional ATP substitute, referred to as AMPPMP 3) ATP enriched medium. AMPPMP is a non-hydrolysable ATP analogue which inhibits TopoII activity.

Escherichia coli = experiment: Antibiotic sensitivity detection, bacteria adsorbed on cantilever; format: cell-based; conditions: FIG. 8
Description: Motile bacteria (Escherichia coli), resistant to kanamycin but sensitive to ampicillin, were adsorbed to both sides of a cantilever. The bacteria were successively exposed to both antibiotics to determine the impact on the bacterial motion/viability (see FIG. 7).
In these experiments the cantilever was introduced in the analysis chamber and exposed to a solution containing bacteria that eventually attached to its surface. The system was then exposed to: 1) nutriment depleted buffer, 2) nutriment solution (Lysogeny broth (LB)), 3) kanamycin-enriched LB solution 4) LB solution 5) ampicillins-enriched LB solution and, finally, 6) LB solution.
The experiment was performed using an APTES-coated AFM cantilever. The different phases of the experiment are depicted: PBS, bacteria in PBS, bacteria in LB, exposure to kanamycin, washing with LB, exposure to ampicillin, washing with LB.

Staphylococcus aureus = experiment: Antibiotic sensitivity detection, non-motile bacteria on cantilever; format: cell-based; conditions: exposure to ampicillin in LB; FIG. 10
Description: Later on, similar experiments were repeated using non-motile bacteria (Staphylococcus aureus) susceptible to ampicillin. […] The results of the cantilever motion RMS are depicted in FIG. 10. In this experiment an APTES-coated AFM cantilever was used. The different phases of the experiment are depicted: PBS, bacteria in PBS, bacteria in LB and exposure to ampicillin.

variance of the cantilever fluctuations (human Topoisomerase II; 0.02 mM ATP, compared to ATP depleted buffer or aclarubicin, FIG. 4): significantly higher
conformational changes induced on TopoII (cantilever fluctuation variance) (human Topoisomerase II; 0.02 mM, 0.2 mM, 2 mM ATP, FIG. 5): dependent on its concentration
SMILES: Nc1ncnc2c1ncn2[C@@H]1O[C@H](COP(=O)(O)OP(=O)(O)OP(=O)(O)O)[C@@H](O)[C@H]1O [ATP]
cantilever fluctuation variance [1]: significant increase

SMILES: CC1(C)S[C@@H]2[C@H](NC(=O)[C@H](N)c3ccccc3)C(=O)N2[C@H]1C(=O)O [ampicillin]
bacterial motion (cantilever fluctuations) (Escherichia coli; antibiotic-enriched LB solution, E. coli resistant to kanamycin, sensitive to ampicillin): dramatically decreased
bacterial motion after washing with LB solution (Escherichia coli; step 6, LB solution after ampicillin exposure): remained at the same value
internal movements of bacteria (cantilever motion) (Staphylococcus aureus): decreased dramatically

SMILES: CC[C@@]1(O)C[C@H](O[C@H]2C[C@H](N(C)C)[C@H](O[C@H]3C[C@H](O)[C@H](O[C@H]4CCC(=O)[C@H](C)O4)[C@H](C)O3)[C@H](C)O2)c2c(cc3c(c2O)C(=O)c2c(O)cccc2C3=O)[C@H]1C(=O)OC [aclarubicin]
TopoII conformational state (cantilever fluctuation) (human Topoisomerase II; 0.02 mM ATP plus 100 μM aclarubicin, FIG. 4): again in equilibrium
